Experimental findings from patent US20070010671A1, “Novel quinazoline derivatives and methods of treatment related to the use thereof” (priority 2003, published 2007) are described below.

The first assay concerns the target MCH receptor (Homo sapiens, UniProt Q99705). Put plainly: High throughput functional screening FLIPR/FDSS6000: inhibition of MCH-evoked intracellular Ca2+ changes. It counts as cell-based. As to conditions: class by percent of control at 10^-7 M or IC50. The essentials: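 Cells expressing constitutively active MCH receptor, loaded with 4 μM Fluo4-AM for 1 h at 37 °C, were pretreated 3 min with compound, then challenged with MCH (50 nM for antagonist testing). MCH-evoked [Ca2+]i transients followed by FLIPR or FDSS (ex 488/em 530 nm) over 290 s.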
Consider `CCCCCCCCCCc1ccc(NC(=S)NC[C@H]2CC[C@@H](Nc3nc(N(C)C)c4ccccc4n3)CC2)cc1` [compound 738], for which the class is 3 (Class 3: The value of percent of control at 10^−7 M was more than 60% or the value of IC50 was more than 200 nM.).

As for `Cc1cc(Br)cc(C)c1NC(=S)NC[C@H]1CC[C@@H](Nc2nc(N(C)C)c3ccccc3n2)CC1` [compound 691, N-(4-bromo-2,6-dimethylphenyl)-N′-[(cis-4-{[4-(dimethylamino)quinazolin-2-yl]amino}cyclohexyl)methyl]thiourea], the class was 1 (Class 1: The value of percent of control at 10^−7 M was less than 40% or the value of IC50 was less than 50 nM.). Turning to `CCc1cccc(C(C)C)c1NC(=S)NC[C@H]1CC[C@@H](Nc2nc(N(C)C)c3ccccc3n2)CC1` [compound 597], the class is reported as 2 (Class 2: The value of percent of control at 10^−7 M was from 40% to 60% or the value of IC50 was from 50 nM to 200 nM.).

Take `CN(C)c1nc(N[C@H]2CC[C@@H](CNC(=O)Nc3ccc4c(c3)OCO4)CC2)nc2ccccc12` [compound 519]: the class is 3 (Class 3: The value of percent of control at 10^−7 M was more than 60% or the value of IC50 was more than 200 nM.). Same read-out and setting: next, `CN(C)c1nc(N[C@H]2CC[C@@H](CNC(=S)Nc3cccc(C(=O)O)c3)CC2)nc2ccccc12` [compound 686]: 3 (Class 3: The value of percent of control at 10^−7 M was more than 60% or the value of IC50 was more than 200 nM.); `CN(C)c1nc(N[C@H]2CC[C@@H](NC(=S)NC3CC4CCC3C4)CC2)nc2ccccc12` (relative stereo) [compound 377]: 1 (Class 1: The value of percent of control at 10^−7 M was less than 40% or the value of IC50 was less than 50 nM.). Take `CN(C)c1nc(N[C@H]2CC[C@@H](CNC(=S)NCCCCc3ccccc3)CC2)nc2ccccc12` [compound 795]: the class is reported as 3 (Class 3: The value of percent of control at 10^−7 M was more than 60% or the value of IC50 was more than 200 nM.).

Turning to `CC(NC(=S)N[C@H]1CC[C@@H](Nc2nc(N(C)C)c3ccccc3n2)CC1)c1ccc(F)cc1` (relative stereo) [compound 273, N-(cis-4-{[4-(dimethylamino)quinazolin-2-yl]amino}cyclohexyl)-N′-[1-(4-fluorophenyl)ethyl]thiourea], the class is listed as 2 (Class 2: The value of percent of control at 10^−7 M was from 40% to 60% or the value of IC50 was from 50 nM to 200 nM.). As to `Cc1cc(C)cc(NC(=O)NC[C@H]2CC[C@@H](Nc3nc(N(C)C)c4ccccc4n3)CC2)c1` [compound 526], the class is listed as 3 (Class 3: The value of percent of control at 10^−7 M was more than 60% or the value of IC50 was more than 200 nM.). Still for that read-out and setting: next, `CN(C)c1nc(N[C@H]2CC[C@@H](CNC(=S)Nc3cc(C(F)(F)F)ccc3Cl)CC2)nc2ccccc12` [compound 677]: 3 (Class 3: The value of percent of control at 10^−7 M was more than 60% or the value of IC50 was more than 200 nM.); `CN(C)c1nc(N[C@H]2CC[C@@H](CNC(=S)Nc3cccc(OCc4ccccc4)c3)CC2)nc2ccccc12` [compound 685]: 3 (Class 3: The value of percent of control at 10^−7 M was more than 60% or the value of IC50 was more than 200 nM.). The same measure, in the same setting: with “N-(2,5-dimethylphenyl)-N′-[(cis-4-{[4-(dimethylamino)quinazolin-2-yl]amino}cyclohexyl)methyl]urea [compound 480]” the figure was 2 (Class 2: The value of percent of control at 10^−7 M was from 40% to 60% or the value of IC50 was from 50 nM to 200 nM.); with `Cc1cc(C)c(NC(=S)NC[C@H]2CC[C@@H](Nc3nc(N(C)C)c4ccccc4n3)CC2)c(C)c1` [compound 672, N-[(cis-4-{[4-(dimethylamino)quinazolin-2-yl]amino}cyclohexyl)methyl]-N′-mesitylthiourea], 2 (Class 2: The value of percent of control at 10^−7 M was from 40% to 60% or the value of IC50 was from 50 nM to 200 nM.); with `CN(C)c1nc(N[C@H]2CC[C@@H](NC(=S)Nc3ccc(Br)c(Cl)c3)CC2)nc2ccccc12` [compound 311], 3 (Class 3: The value of percent of control at 10^−7 M was more than 60% or the value of IC50 was more than 200 nM.).

Turning to `CN(C)c1nc(N[C@H]2CC[C@@H](CNC(=O)Nc3ccc(C#N)cc3)CC2)nc2ccccc12` [compound 549, N-(4-cyanophenyl)-N′-[(cis-4-{[4-(dimethylamino)quinazolin-2-yl]amino}cyclohexyl)methyl]urea], the class is on record as 1 (Class 1: The value of percent of control at 10^−7 M was less than 40% or the value of IC50 was less than 50 nM.). Same read-out and setting: next, `CN(C)c1nc(N[C@H]2CC[C@@H](CNC(=O)NC3CCCCC3)CC2)nc2ccccc12` [compound 417, N-cyclohexyl-N′-[(cis-4-{[4-(dimethylamino)quinazolin-2-yl]amino}cyclohexyl)methyl]urea]: 2 (Class 2: The value of percent of control at 10^−7 M was from 40% to 60% or the value of IC50 was from 50 nM to 200 nM.). Same read-out and setting: with `CCOC(=O)[C@H](CC(C)C)NC(=O)NC[C@H]1CC[C@@H](Nc2nc(N(C)C)c3ccccc3n2)CC1` (relative stereo) [compound 435, ethyl N-({[(cis-4-{[4-(dimethylamino)quinazolin-2-yl]amino}cyclohexyl)methyl]amino}carbonyl)leucinate] the figure was 1 (Class 1: The value of percent of control at 10^−7 M was less than 40% or the value of IC50 was less than 50 nM.); with `COc1ccc(NC(=S)N[C@H]2CC[C@@H](Nc3nc(N(C)C)c4ccccc4n3)CC2)c([N+](=O)[O-])c1` [compound 276], 3 (Class 3: The value of percent of control at 10^−7 M was more than 60% or the value of IC50 was more than 200 nM.). The same measure, in the same setting: next, `Cc1ccc(C)c(NC(=S)N[C@H]2CC[C@@H](Nc3nc(N(C)C)c4ccccc4n3)CC2)c1` [compound 362, N-(cis-4-{[4-(dimethylamino)quinazolin-2-yl]amino}cyclohexyl)-N′-(2,5-dimethylphenyl)thiourea]: 2 (Class 2: The value of percent of control at 10^−7 M was from 40% to 60% or the value of IC50 was from 50 nM to 200 nM.). Take `COc1cc(OC)c(NC(=S)N[C@H]2CC[C@@H](Nc3nc(N(C)C)c4ccccc4n3)CC2)cc1Cl` [compound 324, N-(5-chloro-2,4-dimethoxyphenyl)-N′-(cis-4-{[4-(dimethylamino)quinazolin-2-yl]amino}cyclohexyl)thiourea]: the class is 1 (Class 1: The value of percent of control at 10^−7 M was less than 40% or the value of IC50 was less than 50 nM.).

The assay is the same for the next values; noted with them: class by percent of control at 10^-7 M or by IC50; read-out: class.
On to `CN(C)c1nc(N[C@H]2CC[C@@H](CNC(=O)Oc3cccc(C(F)(F)F)c3)CC2)nc2ccccc12` [compound 869], for which the IC50 is more than 200 nM. As for `CN(C)c1nc(N[C@H]2CC[C@@H](NC(=O)NC34CC5CC(CC(C5)C3)C4)CC2)nc2ccccc12` (relative stereo) [compound 5], the IC50 was more than 200 nM. On the same count and under the same terms, with `Cc1cc(Cl)ccc1NC(=O)N[C@H]1CC[C@@H](Nc2nc(N(C)C)c3ccccc3n2)CC1` [compound 146] the figure was less than 50 nM; with `Cc1ccc(OC(=O)N[C@H]2CC[C@@H](Nc3nc(N(C)C)c4ccccc4n3)CC2)cc1` [compound 861], more than 200 nM. For `CCCCNC(=O)N[C@H]1CC[C@@H](Nc2nc(N(C)C)c3ccccc3n2)CC1` [compound 13, N-butyl-N′-(cis-4-{[4-(dimethylamino)quinazolin-2-yl]amino}cyclohexyl)urea], the IC50 is less than 50 nM. Regarding `CN(C)c1nc(N[C@H]2CC[C@@H](NC(=S)Nc3ccc(Cl)c(Cl)c3)CC2)nc2ccccc12` [compound 170], the IC50 is more than 200 nM.

The assay is the same for the next values; noted with them: class by percent of control at 10^−7 M or by IC50; read-out: class.
Consider `CN(C)c1nc(N[C@H]2CC[C@@H](CNC(=O)c3ccc(OC(F)(F)F)cc3)C2)nc2ccccc12` [Example 1128, N-[((1R,3S)-3-{[4-(dimethylamino)quinazolin-2-yl]amino}cyclopentyl)methyl]-4-(trifluoromethoxy)benzamide], for which the IC50 is more than 200 nM. Same read-out and setting: next, `CN(C)c1nc(N[C@H]2CC[C@@H](C(=O)NCc3ccc(F)c(Cl)c3)CC2)nc2ccccc12` [Example 1181, cis-N-(3-chloro-4-fluorobenzyl)-4-{[4-(dimethylamino)quinazolin-2-yl]amino}cyclohexanecarboxamide]: less than 50 nM; `CN(C)c1nc(N[C@H]2CC[C@@H](CNC(=O)C(O)c3cccc(F)c3F)CC2)nc2ccccc12` (relative stereo) [Example 1093, 2-(2,3-difluorophenyl)-N-[(cis-4-{[4-(dimethylamino)quinazolin-2-yl]amino}cyclohexyl)methyl]-2-hydroxyacetamide]: more than 200 nM.

With `CN(C)c1nc(N[C@H]2CC[C@@H](NC(=O)c3ccnc(Oc4ccc(Cl)cc4)c3)CC2)nc2ccccc12` [Example 1074, 2-(4-chlorophenoxy)-N-(cis-4-{[4-(dimethylamino)quinazolin-2-yl]amino}cyclohexyl)isonicotinamide], the IC50 was less than 50 nM. Consider `CN(C)c1nc(N[C@H]2CC[C@@H](C(=O)NCc3ccc(S(C)(=O)=O)cc3)CC2)nc2ccccc12` [Example 1195, cis-4-{[4-(dimethylamino)quinazolin-2-yl]amino}-N-[4-(methylsulfonyl)benzyl]cyclohexanecarboxamide], for which the IC50 was less than 50 nM. Same read-out and setting: next, `CN(C)c1nc(N[C@H]2CC[C@@H](NC(=O)c3cccnc3Oc3ccc(F)c(Cl)c3)CC2)nc2ccccc12` [Example 1043, 2-(3-chloro-4-fluorophenoxy)-N-(cis-4-{[4-(dimethylamino)quinazolin-2-yl]amino}cyclohexyl)nicotinamide]: less than 50 nM. Still for that read-out and setting: with `CN(C)c1nc(N[C@H]2CC[C@@H](C(=O)NCc3ccccc3C(F)(F)F)CC2)nc2ccccc12` [Example 1193, cis-4-{[4-(dimethylamino)quinazolin-2-yl]amino}-N-[2-(trifluoromethyl)benzyl]cyclohexanecarboxamide] the figure was less than 50 nM.
